Columns and labels:
[1] = target: T1, EnaH-EVH1 domain (Homo sapiens (Human), UniProt Q8N8S7); assay: Binding affinity to the EnaH-EVH1 domain by fluorescence titration (FT); settings: for Kd / FT ΔG^0 (free energy): EnaH-EVH1 domain
Procedure: (§1) The binding data of the ligands to the domain was determined by means of isothermal titration calorimetry (ITC) or fluorescence titration (FT) and presented in the form of the dissociation constant (Kd) or the free energy (AGO). A stronger binding of the ligand to the domain is expressed by a smaller Kd value or a correspondingly more negative AGO value. The relationship between the two parameters is shown in equation (a): […]

[2] = esterification of the free acid 43; cited from earlier work
[3] = Metabolic stability; format: in vitro ADME; settings: comparison among derivatives 44, 242 and 113
[4] = target: VASP (Homo sapiens (Human), UniProt P50552); settings: cited from earlier work
[5] = Cell permeability; format: in vitro ADME; settings: comparison among derivatives 44, 242 and 113
[6] = tested on: highly metastatic colorectal and breast cancer cells; settings: cited from earlier work
[7] = target: T1, EnaH-EVH1 domain; assay: Binding affinity to the EnaH-EVH1 domain by isothermal titration calorimetry (ITC); settings: standard errors in brackets
Procedure: as §1

[8] = tested on: Ena/VASP-EVH1 domain; settings: cited from earlier work
[9] = target: VASP-EVH1 (Homo sapiens (Human), UniProt P50552); settings: cited from earlier work
[10] = target: EVL-EVH1 (Homo sapiens (Human), UniProt Q9UI08); settings: cited from earlier work
[11] = target: Ena-EVH1 (Homo sapiens (Human), UniProt Q8N8S7); settings: cited from earlier work
[12] = fluorescence titration, Table 3, read-out: KD

T1 sequence (Q8N8S7 1-111): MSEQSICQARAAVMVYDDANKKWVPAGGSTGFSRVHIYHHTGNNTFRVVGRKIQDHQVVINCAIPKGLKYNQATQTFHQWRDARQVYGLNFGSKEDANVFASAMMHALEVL
Sequence of Ena-EVH1 (Q8N8S7 1-111): as above
Sequence of EVL-EVH1 (Q9UI08 1-112): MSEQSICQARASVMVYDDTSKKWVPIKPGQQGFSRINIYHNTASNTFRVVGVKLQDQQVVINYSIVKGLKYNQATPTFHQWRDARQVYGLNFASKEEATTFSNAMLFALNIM
Sequence of VASP-EVH1 (P50552 2-113): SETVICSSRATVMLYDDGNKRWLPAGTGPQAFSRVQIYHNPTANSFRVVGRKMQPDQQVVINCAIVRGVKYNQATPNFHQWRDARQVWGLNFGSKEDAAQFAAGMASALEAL
Sequence of VASP (P50552 whole entry, species assumed): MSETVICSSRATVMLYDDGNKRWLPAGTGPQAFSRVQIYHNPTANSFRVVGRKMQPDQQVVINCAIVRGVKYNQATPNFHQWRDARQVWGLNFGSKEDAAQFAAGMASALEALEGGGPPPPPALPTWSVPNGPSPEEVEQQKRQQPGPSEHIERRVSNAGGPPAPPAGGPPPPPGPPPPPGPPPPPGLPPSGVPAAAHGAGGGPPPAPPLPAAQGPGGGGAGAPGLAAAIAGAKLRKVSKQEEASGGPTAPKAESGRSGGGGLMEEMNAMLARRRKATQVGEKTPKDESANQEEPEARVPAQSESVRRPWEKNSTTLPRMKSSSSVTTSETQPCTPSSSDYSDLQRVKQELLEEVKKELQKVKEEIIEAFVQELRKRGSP

For `CC[C@@H]1C=C[C@H]2CCN(C(=O)[C@@H]3CC[C@@H]4C=C[C@H]5CCN(C(=O)[C@H](Cc6ccccc6Cl)NC(C)=O)[C@@H]5C(=O)N43)[C@@H]2C(=O)N1CC(=O)OC` [Ac-[2Cl-Phe]-[ProM-1]-[ProM-15]-OMe], the Kd [1, 12] was 900 nM.

Work on `COC(=O)CN1C(=O)[C@@H]2[C@@H](C=C[C@H]1CC(C)C)CCN2C(=O)[C@@H]1CC[C@@H]2C=C[C@H]3CCN(C(=O)[C@H](Cc4ccccc4Cl)NC(C)=O)[C@@H]3C(=O)N21` [Ac-[2Cl-Phe]-[ProM-1]-[ProM-17]-OMe] yielded a Kd [1, 12] of 2200 nM.

For `CCC[C@@H]1C=C[C@H]2CCN(C(=O)[C@@H]3CC[C@@H]4C=C[C@H]5CCN(C(=O)[C@H](Cc6ccccc6Cl)NC(C)=O)[C@@H]5C(=O)N43)[C@@H]2C(=O)N1CC(=O)OC` [Ac-[2Cl-Phe]-[ProM-1]-[ProM-21]-OMe], the Kd [1, 12] was 2100 nM.

In the case of `COC(=O)CN1C(=O)[C@@H]2[C@@H](C=C[C@H]1CC(C)C)CCN2C(=O)[C@@H]1CC[C@H]2C=C[C@]3(CCCN3C(=O)[C@H](Cc3ccccc3Cl)NC(C)=O)C(=O)N21` [Ac-[2Cl-Phe]-[ProM-2]-[ProM-17]-OMe], the Kd [1, 12] is reported as 540 nM.

With `CCC[C@@H]1C=C[C@H]2CCN(C(=O)[C@@H]3CC[C@H]4C=C[C@]5(CCCN5C(=O)[C@H](Cc5ccccc5Cl)NC(C)=O)C(=O)N43)[C@@H]2C(=O)N1CC(=O)OC` [Ac-[2Cl-Phe]-[ProM-2]-[ProM-21]-OMe] the Kd [1, 12] was 260 nM.

For `CCOC(=O)[C@@H]1CC[C@@H]2C=C[C@H]3CCN(C(=O)[C@@H]4CC[C@H]5C=C[C@]6(CCCN6C(=O)[C@H](Cc6ccccc6Cl)NC(C)=O)C(=O)N54)[C@@H]3C(=O)N21` [Ligand 44, Ac-[L-2Cl—F]-[ProM-2]-[ProM-1]-OEt, reference compound], the “FT ΔG^0 (free energy)” value ([1]; standard errors in brackets) is listed as −30.8 (0.2) kJ/mol, the cell permeability [2] is listed as “cell-permeable” and the metabolic stabilities [3] is listed as “almost identical”. The “delocalization of VASP from focal adhesions and leading edge” value [4] was “delocalizes the protein VASP from focal adhesions”, the cell permeabilities [5] was “almost identical” and the “motility of cancer cells” value [6] was “drastically reduces the motility”.

In the case of `CC(=O)N[C@@H](Cc1ccccc1Cl)C(=O)N1CCC[C@]12C=C[C@@H]1CC[C@@H](C(=O)N3CC[C@@H]4C=C[C@H]5CC[C@@H](C(N)=O)N5C(=O)[C@H]43)N1C2=O` [Ligand 113, Ac-[L-2Cl—F]-[ProM-2]-[ProM-1]-NH2], the metabolic stabilities [3] is reported as “almost identical”, the cell permeabilities [5] is reported as “almost identical” and the Kd [7] is reported as 7 µM.

In the case of `COC(=O)[C@@H]1CC[C@@H]2C=C[C@H]3CCN(C(=O)[C@@H]4CC[C@H]5C=C[C@]6(CCCN6C(=O)[C@H](Cc6ccccc6Cl)NC(C)=O)C(=O)N54)[C@@H]3C(=O)N21` [Ligand 242, Ac-[L-2Cl—F]-[ProM-2]-[ProM-1]-OMe], the “FT ΔG^0 (free energy)” value ([1]; standard errors in brackets) is reported as −30.6 (0.4) kJ/mol, the metabolic stabilities [3] is reported as “almost identical” and the cell permeabilities [5] is reported as “almost identical”.

With `CC[C@@H]1C=C[C@H]2CCN(C(=O)[C@@H]3CC[C@H]4C=C[C@]5(CCCN5C(=O)[C@H](Cc5ccccc5Cl)NC(C)=O)C(=O)N43)[C@@H]2C(=O)N1CC(=O)OC` [Ligand 247, Ac-[L-2Cl—F]-[ProM-2]-[R,S,R-Gly-ProM-15]-OMe] the Kd [1, 12] was 470 nM, the “FT ΔG^0 (free energy)” value ([1]; standard errors in brackets) was −36.1 (0.1) kJ/mol and the Kd ([1]; standard errors in brackets, read-out: FT Kd) was 470 nM. For the same molecule, the “gain in affinity by a factor” value ([1]; compared with the ProM-1-based predecessor ligands 44 and 242) was 9-10.

In the case of `CCOC(=O)[C@@H]1C[C@@H](C)[C@@H]2C=C[C@H]3CCN(C(=O)[C@@H]4CC[C@H]5C=C[C@]6(CCCN6C(=O)[C@H](Cc6ccccc6Cl)NC(C)=O)C(=O)N54)[C@@H]3C(=O)N12` [Ligand 251, Ac-[L-2Cl—F]-[ProM-2]-[ProM-9]-OEt, reference compound], the “FT ΔG^0 (free energy)” value ([1]; standard errors in brackets) is reported as −36.6 (0.3) kJ/mol.

For Ac-SFEFPPPPTEDEL-NH2 [Ligand 40], the “binding to the Ena/VASP-EVH1 domain (range in words)” value [8] is listed as “micromolar range”.

For “Ac-[L-2CI-F]-[ProM-2]-[ProM-1]-OH [Ligand 43]”, the “increased binding affinity compared to the natural peptide 42” value (from here on “increased binding affinity”) [9] is listed as 280 fold, the “increased binding affinity” value [10] is listed as 180 fold and the “increased binding affinity” value [11] is listed as 180 fold.
